# ChEMBL document CHEMBL1201862, “PubChem BioAssay data set” (2004)
# Activity calls are given as the source filed them.
# Experiments:
# INS1 = experiment: beta cell apoptosis inhibitors, cytokine rescue, dose response, luminescence, retest (AID 449756); format: functional, cell-based; details: Rattus norvegicus;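 further: cell death triggered by IL-1 beta plus TNF-alpha plus IFN-gamma mixture; protective hits raise ATP signal compared with cytokine alone wells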
# [1] = tested on: Streptococcus sp. 'group A'; experiment: growth inhibition of control SK(-) GAS strain, dose response, counter-screen for streptokinase expression inhibitor project, luminescence, kanamycin, BacTiterGlo, confirmation (AID 1900); format: functional, organism-based
# Protein RecA = biological target: T1, Protein RecA (Mycobacterium tuberculosis, UniProt P9WHJ3); experiment: Fluorescence Cell-Free Homogeneous Dose Retest to Identify Inhibitors of RecA-Intein Splicing Activity. [Related pubchem assays (depositor defined):AID2097, AID2223, AID489010, AID492950]; format: functional
# T1 sequence (P9WHJ3 whole entry): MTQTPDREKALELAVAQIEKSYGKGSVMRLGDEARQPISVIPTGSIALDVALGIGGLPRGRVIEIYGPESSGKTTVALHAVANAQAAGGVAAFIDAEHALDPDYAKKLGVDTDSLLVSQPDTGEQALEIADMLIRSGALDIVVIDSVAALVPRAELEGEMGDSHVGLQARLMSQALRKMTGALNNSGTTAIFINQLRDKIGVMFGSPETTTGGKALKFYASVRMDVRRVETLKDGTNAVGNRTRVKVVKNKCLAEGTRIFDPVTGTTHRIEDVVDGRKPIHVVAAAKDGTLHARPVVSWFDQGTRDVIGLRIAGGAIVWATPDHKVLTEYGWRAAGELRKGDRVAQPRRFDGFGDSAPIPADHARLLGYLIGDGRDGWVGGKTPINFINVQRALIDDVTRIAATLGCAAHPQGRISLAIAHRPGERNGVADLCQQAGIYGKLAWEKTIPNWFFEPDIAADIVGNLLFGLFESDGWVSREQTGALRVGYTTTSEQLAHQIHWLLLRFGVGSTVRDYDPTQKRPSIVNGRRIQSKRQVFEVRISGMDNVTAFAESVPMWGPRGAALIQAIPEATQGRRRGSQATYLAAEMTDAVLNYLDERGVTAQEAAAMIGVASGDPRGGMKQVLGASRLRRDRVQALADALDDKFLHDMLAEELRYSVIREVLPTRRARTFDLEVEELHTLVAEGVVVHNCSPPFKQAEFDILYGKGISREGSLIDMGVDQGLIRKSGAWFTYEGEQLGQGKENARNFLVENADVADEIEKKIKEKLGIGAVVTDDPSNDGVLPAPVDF
# [2] = growth suppression of beta-catenin-knockout colon cells, dose response, cell-based, HCT116, human colon tumor (AID 1045); format: functional;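 further: HCT116 colon tumor cells with beta catenin knocked out; cells exposed to compound for 60 hours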
# [3] = biological target: T2, Heat shock factor protein 1 (Mus musculus, UniProt P38532); experiment: inhibition of MG132-induced HSE-luciferase signal, confirmation, cell-based, NIH3T3, luminescence, dose retest (AID 2382); format: functional;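 further: NIH3T3 fibroblasts with HSF1-driven luciferase reporter stressed by proteasome inhibitor MG132; luminescence from HSF1-driven luciferase expression after 8 hours of MG132 stress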
# T2 sequence (P38532 whole entry): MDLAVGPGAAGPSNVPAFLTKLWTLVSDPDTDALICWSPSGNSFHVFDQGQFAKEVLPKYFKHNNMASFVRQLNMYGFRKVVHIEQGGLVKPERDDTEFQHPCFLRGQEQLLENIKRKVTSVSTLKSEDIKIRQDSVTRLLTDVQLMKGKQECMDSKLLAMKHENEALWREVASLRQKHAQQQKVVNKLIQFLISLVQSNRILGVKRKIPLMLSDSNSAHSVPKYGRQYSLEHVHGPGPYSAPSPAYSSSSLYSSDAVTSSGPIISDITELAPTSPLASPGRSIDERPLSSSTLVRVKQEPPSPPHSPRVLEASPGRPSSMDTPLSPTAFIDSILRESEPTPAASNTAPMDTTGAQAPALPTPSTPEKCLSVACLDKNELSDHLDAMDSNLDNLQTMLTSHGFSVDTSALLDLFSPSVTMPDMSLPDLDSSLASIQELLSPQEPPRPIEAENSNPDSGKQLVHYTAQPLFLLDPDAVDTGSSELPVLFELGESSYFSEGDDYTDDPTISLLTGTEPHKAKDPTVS
# [4] = growth suppression of PTEN-null colon cells, dose response, cell-based, HCT116 PTEN knockout (AID 1047); format: functional;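 further: HCT116 colon tumor cells with PTEN knocked out; cells exposed to compound for 60 hours before readout; potency for loss of cell viability measured by luminescence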
# Streptococcus = experiment: Group A Streptococcus viability loss, dose response, counter-screen for streptokinase expression inhibitor project, luminescence, BacTiterGlo (AID 1915); format: functional, organism-based;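 further: potency for reduction of bacterial viability or growth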
# [5] = cytotoxicity in MIN6 insulinoma cells, dose response, cytotoxicity control, cell-based, mouse insulinoma (AID 2122); format: functional;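 further: confirmatory high-throughput counterscreen run to flag cytotoxic compounds; mouse MIN-6 beta cells carrying an insulin promoter eGFP reporter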
# [6] = biological target: T3, Apoptotic protease-activating factor 1 (Homo sapiens, UniProt O14727); format: functional
# T3 sequence (O14727 whole entry): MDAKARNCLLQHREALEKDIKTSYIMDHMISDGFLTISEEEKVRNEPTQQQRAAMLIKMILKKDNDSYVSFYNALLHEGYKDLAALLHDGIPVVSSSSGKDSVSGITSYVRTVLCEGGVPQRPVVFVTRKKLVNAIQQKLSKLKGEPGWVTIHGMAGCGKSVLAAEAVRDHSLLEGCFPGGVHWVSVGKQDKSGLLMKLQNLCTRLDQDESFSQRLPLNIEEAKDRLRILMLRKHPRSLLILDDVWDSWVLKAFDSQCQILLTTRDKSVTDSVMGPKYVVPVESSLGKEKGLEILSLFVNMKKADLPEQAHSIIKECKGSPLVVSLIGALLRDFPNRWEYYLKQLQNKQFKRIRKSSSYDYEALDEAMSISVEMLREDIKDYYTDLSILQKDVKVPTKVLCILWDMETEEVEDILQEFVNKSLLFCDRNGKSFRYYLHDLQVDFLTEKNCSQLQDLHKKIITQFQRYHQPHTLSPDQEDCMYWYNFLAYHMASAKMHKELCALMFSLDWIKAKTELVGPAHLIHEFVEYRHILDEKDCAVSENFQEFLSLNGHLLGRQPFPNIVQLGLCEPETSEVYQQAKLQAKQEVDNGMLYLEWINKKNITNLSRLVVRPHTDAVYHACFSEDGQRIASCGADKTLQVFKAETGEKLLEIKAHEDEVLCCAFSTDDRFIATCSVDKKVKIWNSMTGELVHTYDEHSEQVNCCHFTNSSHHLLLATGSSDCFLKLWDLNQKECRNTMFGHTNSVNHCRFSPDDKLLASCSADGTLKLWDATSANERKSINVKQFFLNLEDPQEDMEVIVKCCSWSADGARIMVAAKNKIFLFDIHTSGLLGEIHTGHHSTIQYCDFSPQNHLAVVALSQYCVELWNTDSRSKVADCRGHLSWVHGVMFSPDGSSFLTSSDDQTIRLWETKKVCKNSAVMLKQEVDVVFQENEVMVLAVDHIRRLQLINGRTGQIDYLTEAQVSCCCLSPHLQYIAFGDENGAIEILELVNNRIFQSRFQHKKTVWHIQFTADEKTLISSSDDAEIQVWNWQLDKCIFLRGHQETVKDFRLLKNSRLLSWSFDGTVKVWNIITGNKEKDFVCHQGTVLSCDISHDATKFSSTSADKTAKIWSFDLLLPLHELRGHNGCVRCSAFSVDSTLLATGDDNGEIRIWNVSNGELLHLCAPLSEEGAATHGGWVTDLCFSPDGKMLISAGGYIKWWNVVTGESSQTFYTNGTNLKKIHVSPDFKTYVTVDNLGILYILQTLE
# [7] = biological target: Glucose-6-phosphate 1-dehydrogenase (Homo sapiens, UniProt P11413); experiment: human G6PD enzyme inhibitors, dose response, selectivity assay for P. falciparum G6PD inhibitor project, biochemical, fluorescence (AID 504792); format: functional
# Chain of Glucose-6-phosphate 1-dehydrogenase (P11413 whole entry): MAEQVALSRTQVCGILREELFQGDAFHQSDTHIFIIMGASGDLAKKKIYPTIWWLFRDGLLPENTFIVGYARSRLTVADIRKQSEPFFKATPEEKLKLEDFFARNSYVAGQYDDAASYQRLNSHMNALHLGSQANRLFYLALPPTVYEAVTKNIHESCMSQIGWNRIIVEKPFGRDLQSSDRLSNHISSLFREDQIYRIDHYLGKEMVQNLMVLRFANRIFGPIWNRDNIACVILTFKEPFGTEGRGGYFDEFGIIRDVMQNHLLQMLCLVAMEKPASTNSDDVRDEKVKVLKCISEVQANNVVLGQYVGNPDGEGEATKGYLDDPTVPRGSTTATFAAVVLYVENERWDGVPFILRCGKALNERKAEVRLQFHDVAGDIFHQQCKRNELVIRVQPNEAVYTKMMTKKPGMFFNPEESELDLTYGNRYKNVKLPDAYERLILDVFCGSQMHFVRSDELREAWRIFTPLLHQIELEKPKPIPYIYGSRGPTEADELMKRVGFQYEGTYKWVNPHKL
smiles,measurement,setting,value
COc1ccc(C(=O)c2c(C(F)(F)F)oc3c2C(=O)c2ccccc2C3=O)cc1,AC50,INS1,1.38 µM (active)
same,EC50,[1],2.26 µM (active)
same,EC50,Protein RecA,0.0825 µM (active)
same,EC50,[2],2.55 µM (active)
same,EC50,[3],2.67 µM (active)
same,EC50,[4],2.81 µM (active)
same,EC50,Streptococcus,4.92 µM (active)
same,IC50,[5],2.39 µM (active)
same,IC50,[6],5.29 µM (active)
same,IC50,[7],> 80 µM (inactive)
